Laboratory results as given in PubChem BioAssay AID1259407 (Chemical Carcinogenesis Research Information System (CCRIS), 2018).
Calls of active or inactive are those of the source. How the calls were made is not given here.

Test system: CCRIS mutagenicity, Ames/micronucleus/aberration tests
Test: CCRIS mutagenicity studies
[1] = Test System: AMES SALMONELLA TYPHIMURIUM, Strain/Indicator: TA98, Metabolic Activation: NONE, Method: STANDARD PLATE
[2] = Test System: AMES SALMONELLA TYPHIMURIUM, Strain/Indicator: TA100, Metabolic Activation: NONE, Method: STANDARD PLATE
[3] = Test System: Mouse lymphoma, Strain/Indicator: L5178Y (tk+/tk-), Metabolic Activation: None, Method: Suspension/plate
[4] = Test System: Mouse lymphoma, Strain/Indicator: L5178Y (tk+/tk-), Metabolic Activation: Rat, Liver, S-9, Aroclor 1254, Method: Suspension/plate

COc1ccccc1/C=C/C=O
mutagenic call (Test System: AMES SALMONELLA TYPHIMURIUM, Strain/Indicator: TA98, Metabolic Activation: HAMSTER, LIVER, S-9, AROCLOR 1254 (2.5-20%), Method: PREINCUBATION): inactive; negative
mutagenic call (Test System: AMES SALMONELLA TYPHIMURIUM, Strain/Indicator: TA98, Metabolic Activation: HAMSTER, LIVER, S-9, AROCLOR 1254, Method: STANDARD PLATE): inactive; negative
mutagenic call [1]: inactive; negative
mutagenic call (Test System: AMES SALMONELLA TYPHIMURIUM, Strain/Indicator: TA98, Metabolic Activation: RAT, LIVER, S-9, AROCLOR 1254, Method: STANDARD PLATE): inactive; negative
mutagenic call (Test System: AMES SALMONELLA TYPHIMURIUM, Strain/Indicator: TA100, Metabolic Activation: HAMSTER, LIVER, S-9, AROCLOR 1254 (2.5-20%), Method: PREINCUBATION): inactive; negative
mutagenic call (Test System: AMES SALMONELLA TYPHIMURIUM, Strain/Indicator: TA100, Metabolic Activation: HAMSTER, LIVER, S-9, AROCLOR 1254, Method: STANDARD PLATE): inactive; negative
mutagenic call (Test System: AMES SALMONELLA TYPHIMURIUM, Strain/Indicator: TA100, Metabolic Activation: NONE, Method: PREINCUBATION): inactive; negative
mutagenic call [2]: inactive; negative
mutagenic call (Test System: AMES SALMONELLA TYPHIMURIUM, Strain/Indicator: TA100, Metabolic Activation: RAT, LIVER, S-9, AROCLOR 1254, Method: PREINCUBATION): inactive; negative
mutagenic call (Test System: AMES SALMONELLA TYPHIMURIUM, Strain/Indicator: TA100, Metabolic Activation: RAT, LIVER, S-9, AROCLOR 1254, Method: STANDARD PLATE): inactive; negative
mutagenic call (Test System: AMES SALMONELLA TYPHIMURIUM, Strain/Indicator: TA102, Metabolic Activation: HAMSTER, LIVER, S-9, AROCLOR 1254, Method: PREINCUBATION): inactive; negative
mutagenic call (Test System: AMES SALMONELLA TYPHIMURIUM, Strain/Indicator: TA102, Metabolic Activation: RAT, LIVER, S-9, AROCLOR 1254, Method: PREINCUBATION): inactive; negative
mutagenic call (Test System: AMES SALMONELLA TYPHIMURIUM, Strain/Indicator: TA1535, Metabolic Activation: HAMSTER, LIVER, S-9, AROCLOR 1254, Method: STANDARD PLATE): inactive; negative
mutagenic call (Test System: AMES SALMONELLA TYPHIMURIUM, Strain/Indicator: TA1535, Metabolic Activation: NONE, Method: PREINCUBATION): inactive; negative
mutagenic call (Test System: AMES SALMONELLA TYPHIMURIUM, Strain/Indicator: TA1535, Metabolic Activation: NONE, Method: STANDARD PLATE): inactive; negative
mutagenic call (Test System: AMES SALMONELLA TYPHIMURIUM, Strain/Indicator: TA1535, Metabolic Activation: RAT, LIVER, S-9, AROCLOR 1254, Method: STANDARD PLATE): inactive; negative
mutagenic call (Test System: AMES SALMONELLA TYPHIMURIUM, Strain/Indicator: TA1537, Metabolic Activation: HAMSTER, LIVER, S-9, AROCLOR 1254, Method: STANDARD PLATE): inactive; negative
mutagenic call (Test System: AMES SALMONELLA TYPHIMURIUM, Strain/Indicator: TA1537, Metabolic Activation: NONE, Method: STANDARD PLATE): inactive; negative
mutagenic call (Test System: AMES SALMONELLA TYPHIMURIUM, Strain/Indicator: TA1537, Metabolic Activation: RAT, LIVER, S-9, AROCLOR 1254, Method: STANDARD PLATE): inactive; negative
mutagenic call (Test System: AMES SALMONELLA TYPHIMURIUM, Strain/Indicator: TA1538, Metabolic Activation: HAMSTER, LIVER, S-9, AROCLOR 1254, Method: STANDARD PLATE): inactive; negative
mutagenic call (Test System: AMES SALMONELLA TYPHIMURIUM, Strain/Indicator: TA1538, Metabolic Activation: NONE, Method: STANDARD PLATE): inactive; negative
mutagenic call (Test System: AMES SALMONELLA TYPHIMURIUM, Strain/Indicator: TA1538, Metabolic Activation: RAT, LIVER, S-9, AROCLOR 1254, Method: STANDARD PLATE): inactive; negative
mutagenic call [3]: active; inconclusive (previous evaluation positive)
mutagenic call [4]: active; inconclusive (previous evaluation positive)

Nc1cc2ccc3cccc4ccc(c1)c2c34
mutagenic call (Test System: AMES SALMONELLA TYPHIMURIUM, Strain/Indicator: TA98, Metabolic Activation: RAT, LIVER, S-9, AROCLOR 1254 (2 OR 4%), Method: STANDARD PLATE): active; positive
mutagenic call (Test System: AMES SALMONELLA TYPHIMURIUM, Strain/Indicator: TA100, Metabolic Activation: RAT, LIVER, S-9, AROCLOR 1254 (2%), Method: STANDARD PLATE): active; positive
mutagenic call (Test System: AMES SALMONELLA TYPHIMURIUM, Strain/Indicator: TA1535, Metabolic Activation: RAT, LIVER, S-9, AROCLOR 1254 (2%), Method: STANDARD PLATE): inactive; negative
mutagenic call (Test System: AMES SALMONELLA TYPHIMURIUM, Strain/Indicator: TA1537, Metabolic Activation: RAT, LIVER, S-9, AROCLOR 1254 (2%), Method: STANDARD PLATE): active; positive

Brc1ccc(C2CO2)cc1 (stereo unspecified)
mutagenic call (Test System: E. COLI, Strain/Indicator: WP2 UVRA, Metabolic Activation: NONE, Method: STANDARD PLATE): active; positive

C1=CC2OC2C=CO1 (stereo unspecified)
mutagenic call [1]: inactive; negative
mutagenic call (Test System: AMES SALMONELLA TYPHIMURIUM, Strain/Indicator: TA98, Metabolic Activation: RAT, LIVER, S-9, PHENOBARBITAL, Method: STANDARD PLATE): inactive; negative
mutagenic call [2]: inactive; negative
mutagenic call (Test System: AMES SALMONELLA TYPHIMURIUM, Strain/Indicator: TA100, Metabolic Activation: RAT, LIVER, S-9, PHENOBARBITAL, Method: STANDARD PLATE): inactive; negative
mutagenic call (Test System: AMES SALMONELLA TYPHIMURIUM, Strain/Indicator: TM677/8-AZAGUANINE, Metabolic Activation: NONE, Method: STANDARD PLATE): inactive; negative

COCOC
mutagenic call [3]: inactive; negative
mutagenic call [4]: inactive; negative
